Test [1] has as its system LNCaP cells. Put plainly: LNCaP cell viability assay (CellTiter-Glo). Conditions: for pIC50: Homo sapiens, 72 h, LNCaP prostate cancer cell viability inhibition, 3 days. It is filed as cell-based. The gist of the method:
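LNCaP cells, 5000/well, exposed to compounds in 12-point 3-fold serial dilution (top 10 μM) for 3 days. Viability by CellTiter-Glo luminescence, normalized to untreated cells; IC50 by least-squares nonlinear regression.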

The target in test [2] is P300 (Homo sapiens, UniProt Q09472). Put plainly: Immunoblotting of P300 protein levels in LNCaP or 22RV1 cells. It is filed as cell-based. The arrangement: LNCaP or 22RV1 cells that express CBP/P300 proteins were treated with GNE-781 or the bivalent compounds; endogenous in cells; host or cells: LNCaP (clone FGC) or 22RV1 cells. Conditions: read-out: Degradation (10 nM). The gist of the method: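 LNCaP or 22RV1 cells treated with compounds for indicated hours, DMSO as negative control. RIPA lysates resolved by SDS-PAGE and immunoblotted for P300 or CBP, tubulin or vinculin as loading control; chemiluminescent bands quantitated.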

[3] abbreviates: percentage of inhibition of p300 at 10 nM (Table 2).
Setting [4] is: percentage of inhibition of p300 at 10 nM (Table 3).

Data on 13 compounds can be found in patent US20230073777A1, “CYCLIC-AMP RESPONSE ELEMENT BINDING PROTEIN (CBP) AND/OR ADENOVIRAL E1A BINDING PROTEIN OF 300 KDA (P300) DEGRADATION COMPOUNDS AND METHODS OF USE” (CULLGEN (SHANGHAI), INC., priority 2019, published 2023).

pIC50: −log10 of the molar value. Read-outs that look alike come from different tables or passages of the source. Some results are limits rather than exact numbers.

Sequence of P300 (Q09472 whole entry): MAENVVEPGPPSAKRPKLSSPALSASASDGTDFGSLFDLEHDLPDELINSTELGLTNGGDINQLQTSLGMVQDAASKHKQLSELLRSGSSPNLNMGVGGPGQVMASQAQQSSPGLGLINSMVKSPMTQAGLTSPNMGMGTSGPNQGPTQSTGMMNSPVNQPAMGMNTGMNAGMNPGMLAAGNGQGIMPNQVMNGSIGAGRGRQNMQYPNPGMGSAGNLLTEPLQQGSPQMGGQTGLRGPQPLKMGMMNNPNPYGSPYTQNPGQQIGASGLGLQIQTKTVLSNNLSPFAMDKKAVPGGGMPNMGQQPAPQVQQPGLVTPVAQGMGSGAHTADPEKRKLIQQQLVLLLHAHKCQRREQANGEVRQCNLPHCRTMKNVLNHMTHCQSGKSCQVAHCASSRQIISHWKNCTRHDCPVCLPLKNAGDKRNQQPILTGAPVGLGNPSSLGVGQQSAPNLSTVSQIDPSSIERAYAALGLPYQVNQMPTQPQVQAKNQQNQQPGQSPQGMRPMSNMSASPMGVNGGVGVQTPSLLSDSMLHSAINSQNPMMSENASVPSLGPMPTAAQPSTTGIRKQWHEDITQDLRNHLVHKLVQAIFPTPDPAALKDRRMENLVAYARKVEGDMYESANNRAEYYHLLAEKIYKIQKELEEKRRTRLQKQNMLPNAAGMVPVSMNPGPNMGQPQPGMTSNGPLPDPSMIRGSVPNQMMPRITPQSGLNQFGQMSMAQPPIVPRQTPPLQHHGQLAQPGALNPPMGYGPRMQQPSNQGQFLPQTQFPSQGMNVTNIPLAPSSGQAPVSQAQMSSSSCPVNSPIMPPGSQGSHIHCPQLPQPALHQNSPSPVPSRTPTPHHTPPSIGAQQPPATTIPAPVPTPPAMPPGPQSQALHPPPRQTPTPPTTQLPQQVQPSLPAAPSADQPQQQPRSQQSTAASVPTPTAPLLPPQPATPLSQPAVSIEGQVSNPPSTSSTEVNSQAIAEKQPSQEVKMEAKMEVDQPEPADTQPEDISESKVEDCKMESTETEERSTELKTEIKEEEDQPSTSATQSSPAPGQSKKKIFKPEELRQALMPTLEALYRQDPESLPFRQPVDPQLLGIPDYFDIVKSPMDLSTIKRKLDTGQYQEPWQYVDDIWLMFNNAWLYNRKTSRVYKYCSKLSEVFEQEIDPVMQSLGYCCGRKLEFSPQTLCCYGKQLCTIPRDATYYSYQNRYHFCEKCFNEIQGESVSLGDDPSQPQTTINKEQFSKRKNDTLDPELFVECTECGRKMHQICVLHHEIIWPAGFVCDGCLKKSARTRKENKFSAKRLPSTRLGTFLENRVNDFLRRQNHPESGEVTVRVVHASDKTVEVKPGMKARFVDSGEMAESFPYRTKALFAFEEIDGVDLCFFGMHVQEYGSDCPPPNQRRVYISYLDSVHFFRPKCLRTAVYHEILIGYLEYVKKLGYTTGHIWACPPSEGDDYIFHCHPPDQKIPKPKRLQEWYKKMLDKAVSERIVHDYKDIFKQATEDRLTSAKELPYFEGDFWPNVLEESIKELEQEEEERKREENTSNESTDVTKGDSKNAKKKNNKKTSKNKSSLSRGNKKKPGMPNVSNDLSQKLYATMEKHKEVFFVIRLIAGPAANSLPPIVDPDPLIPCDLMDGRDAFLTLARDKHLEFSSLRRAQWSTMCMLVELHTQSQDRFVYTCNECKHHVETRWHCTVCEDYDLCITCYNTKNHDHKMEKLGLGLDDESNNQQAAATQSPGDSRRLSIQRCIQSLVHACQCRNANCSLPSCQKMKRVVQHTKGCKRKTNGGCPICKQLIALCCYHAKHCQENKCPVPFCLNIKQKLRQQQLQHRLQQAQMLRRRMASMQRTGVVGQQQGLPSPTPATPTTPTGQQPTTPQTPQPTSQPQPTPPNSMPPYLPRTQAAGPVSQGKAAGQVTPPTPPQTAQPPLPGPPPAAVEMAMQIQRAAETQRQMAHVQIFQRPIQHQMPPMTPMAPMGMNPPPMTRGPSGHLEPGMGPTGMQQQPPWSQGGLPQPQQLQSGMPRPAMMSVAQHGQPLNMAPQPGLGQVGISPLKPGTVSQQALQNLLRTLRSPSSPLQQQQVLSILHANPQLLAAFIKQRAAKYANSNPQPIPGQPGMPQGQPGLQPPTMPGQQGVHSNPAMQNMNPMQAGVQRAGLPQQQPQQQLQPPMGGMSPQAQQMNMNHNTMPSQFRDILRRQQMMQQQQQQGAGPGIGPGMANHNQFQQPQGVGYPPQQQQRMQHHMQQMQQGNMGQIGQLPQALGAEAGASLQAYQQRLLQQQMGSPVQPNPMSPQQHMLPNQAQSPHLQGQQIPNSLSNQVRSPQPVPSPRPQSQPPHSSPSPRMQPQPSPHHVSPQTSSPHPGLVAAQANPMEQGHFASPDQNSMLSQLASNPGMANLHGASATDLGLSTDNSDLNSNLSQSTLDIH

For `CNC(=O)N1CCc2c(c(N3CCCc4cc(-c5cnn(CC(=O)NCCNc6cccc7c6C(=O)N(C6CCC(=O)NC6=O)C7=O)c5)c(C(F)F)cc43)nn2C2CCOCC2)C1` (stereo not drawn) [P-037, 3-(7-(Difluoromethyl)-6-(1-(2-((2-((2-(2,6-dioxopiperidin-3-yl)-1,3-dioxoisoindolin-4-yl)amino)ethyl)amino)-2-oxoethyl)-1H-pyrazol-4-yl)-3,4-dihydroquinolin-1(2H)-yl)-N-methyl-1-(tetrahydro-2H-pyran-4-yl)-1,4,6,7-tetrahydro-5H-pyrazolo[4,3-c]pyridine-5-carboxamide], the negative-log IC50 (pIC50) in test [1] (CellTiter-Glo (Table 2)) is < 5.00. Also, the inhibition at 0.01 µM in test [2] (setting [3]) was < 20%.
In test [1] (CellTiter-Glo (Table 3)), `CNC(=O)N1CCc2c(c(N3CCCc4cc(-c5cnn(C)c5)c(C(F)F)cc43)nn2C2CCN(C(=O)CCCCC#Cc3cccc4c3CN(C3CCC(=O)NC3=O)C4=O)CC2)C1` (stereo not drawn) [P-093, 3-(7-(difluoromethyl)-6-(1-methyl-1H-pyrazol-4-yl)-3,4-dihydroquinolin-1(2H)-yl)-1-(1-(7-(2-(2,6-dioxopiperidin-3-yl)-1-oxoisoindolin-4-yl)hept-6-ynoyl)piperidin-4-yl)-N-methyl-1,4,6,7-tetrahydro-5H-pyrazolo[4,3-c]pyridine-5-carboxamide] gave a pIC50 of 7.60. Moreover, the inhibition at 0.01 µM in test [2] (setting [4]) was > 80%.
In test [1] (CellTiter-Glo (Table 2)), `CNC(=O)N1CCc2c(c(N3CCCc4cc(-c5cnn(C)c5)c(C(F)F)cc43)nn2C2CCN(C(=O)CCCNc3ccc4c(c3)C(=O)N(C3CCC(=O)NC3=O)C4=O)CC2)C1` (stereo not drawn) [P-003, 3-(7-(Difluoromethyl)-6-(1-methyl-1H-pyrazol-4-yl)-3,4-dihydroquinolin-1(2H)-yl)-1-(1-(4-((2-(2,6-dioxopiperidin-3-yl)-1,3-dioxoisoindolin-5-yl)amino)butanoyl)piperidin-4-yl)-N-methyl-1,4,6,7-tetrahydro-5H-pyrazolo[4,3-c]pyridine-5-carboxamide] gave a negative-log IC50 (pIC50) of 7.45. The inhibition at 0.01 µM in test [2] (setting [3]) was 50 to 80%.
Compound `CNC(=O)N1CCc2c(c(N3CCCc4cc(-c5cnn(C)c5)c(C(F)F)cc43)nn2C2CCN(C(=O)CCNc3ccc4c(c3)C(=O)N(C3CCC(=O)NC3=O)C4=O)CC2)C1` (stereo not drawn) [P-002, 3-(7-(Difluoromethyl)-6-(1-methyl-1H-pyrazol-4-yl)-3,4-dihydroquinolin-1(2H)-yl)-1-(1-(3-((2-(2,6-dioxopiperidin-3-yl)-1,3-dioxoisoindolin-5-yl)amino)propanoyl)piperidin-4-yl)-N-methyl-1,4,6,7-tetrahydro-5H-pyrazolo[4,3-c]pyridine-5-carboxamide] gave a pIC50 in test [1] (CellTiter-Glo (Table 2)) of 7.38. The “viability of LNCaP cells” value in test [1] (from 10 μM, 12-point 3-fold serial dilution, 3 days (FIG. 4)) is recorded as “dose-dependently suppressed viability”. The inhibition at 0.01 µM in test [2] (setting [3]) was in the range of 50 to 80%.
For `CC(=O)N1CCc2c(c(N3CCCc4cc(-c5cnn(C)c5)c(C(F)F)cc43)nn2C2CCN(C(=O)CN3CC(CCNc4cccc5c4C(=O)N(C4CCC(=O)NC4=O)C5=O)C3)CC2)C1` (stereo not drawn) [P-170, 4-((2-(1-(2-(4-(5-Acetyl-3-(7-(difluoromethyl)-6-(1-methyl-1H-pyrazol-4-yl)-3,4-dihydroquinolin-1(2H)-yl)-4,5,6,7-tetrahydro-1H-pyrazolo[4,3-c]pyridin-1-yl)piperidin-1-yl)-2-oxoethyl)azetidin-3-yl)ethyl)amino)-2-(2,6-dioxopiperidin-3-yl)isoindoline-1,3-dione], in test [1] (CellTiter-Glo (Table 3)), the pIC50 was 7.49. Further, in test [2] (setting [4]), the inhibition at 0.01 µM is 20 to 50%.
Taken in the same sequence, the figures for `CNC(=O)N1CCc2c(c(N3CCCc4cc(-c5cnn(C)c5)c(C(F)F)cc43)nn2C2CCN(C(=O)CCCCNc3ccc4c(c3)n(C)c(=O)n4C3CCC(=O)NC3=O)CC2)C1` (stereo not drawn) [P-125, 3-(7-(Difluoromethyl)-6-(1-methyl-1H-pyrazol-4-yl)-3,4-dihydroquinolin-1(2H)-yl)-1-(1-(5-((1-(2,6-dioxopiperidin-3-yl)-3-methyl-2-oxo-2,3-dihydro-1H-benzo[d]imidazol-5-yl)amino)pentanoyl)piperidin-4-yl)-N-methyl-1,4,6,7-tetrahydro-5H-pyrazolo[4,3-c]pyridine-5-carboxamide] were 7.38 and > 80%.
`CNC(=O)N1CCc2c(c(N3CCCc4cc(-c5cnn(C)c5)c(C(F)F)cc43)nn2C2CCN(C(=O)CCCCCNc3ccc4c(c3)C(=O)N(C3CCC(=O)NC3=O)C4=O)CC2)C1` (stereo not drawn) [P-005, 3-(7-(difluoromethyl)-6-(1-methyl-1H-pyrazol-4-yl)-3,4-dihydroquinolin-1(2H)-yl)-1-(1-(6-((2-(2,6-dioxopiperidin-3-yl)-1,3-dioxoisoindolin-5-yl)amino)hexanoyl)piperidin-4-yl)-N-methyl-1,4,6,7-tetrahydro-5H-pyrazolo[4,3-c]pyridine-5-carboxamide] showed a negative-log IC50 (pIC50) in test [1] (CellTiter-Glo (Table 2)) of 8.40. For the same compound, the inhibition at 0.01 µM in test [2] (setting [3]) was > 80%.
Compound `CC(=O)N1CCc2c(c(N3CCCc4cc(-c5cnn(C)c5)c(C(F)F)cc43)nn2C2CCN(C(=O)CCCCCCn3c(=O)n(C4CCC(=O)NC4=O)c4ccccc43)CC2)C1` (stereo not drawn) [P-108, 3-(3-(7-(4-(5-Acetyl-3-(7-(difluoromethyl)-6-(1-methyl-1H-pyrazol-4-yl)-3,4-dihydroquinolin-1(2H)-yl)-4,5,6,7-tetrahydro-1H-pyrazolo[4,3-c]pyridin-1-yl)piperidin-1-yl)-7-oxoheptyl)-2-oxo-2,3-dihydro-1H-benzo[d]imidazol-1-yl)piperidine-2,6-dione] had a negative logarithm of the IC50 (pIC50) in test [1] (CellTiter-Glo (Table 3)) of 7.78. In test [2] (setting [4]), the inhibition at 0.01 µM lay within 50 to 80%.
On the same counts, the results for `CNC(=O)N1CCc2c(c(N3CCCc4cc(-c5cnn(C)c5)c(C(F)F)cc43)nn2C2CCN(C(=O)CCC(=O)N[C@H](C(=O)N3C[C@H](O)C[C@H]3C(=O)NCc3ccc(-c4scnc4C)cc3)C(C)(C)C)CC2)C1` [P-056, 3-(7-(Difluoromethyl)-6-(1-methyl-1H-pyrazol-4-yl)-3,4-dihydroquinolin-1(2H)-yl)-1-(1-(4-(((S)-1-((2S,4R)-4-hydroxy-2-((4-(4-methylthiazol-5-yl)benzyl)carbamoyl)pyrrolidin-1-yl)-3,3-dimethyl-1-oxobutan-2-yl)amino)-4-oxobutanoyl)piperidin-4-yl)-N-methyl-1,4,6,7-tetrahydro-5H-pyrazolo[4,3-c]pyridine-5-carboxamide] are 7.12 and < 20%.
Taken in the same sequence, the figures for `CNC(=O)N1CCc2c(c(N3CCCc4cc(-c5cnn(C)c5)c(C(F)F)cc43)nn2C2CCN(C(=O)CCCCCNc3ccc4c(c3)n(C)c(=O)n4C3CCC(=O)NC3=O)CC2)C1` (stereo not drawn) [P-115, 3-(7-(difluoromethyl)-6-(1-methyl-1H-pyrazol-4-yl)-3,4-dihydroquinolin-1(2H)-yl)-1-(1-(6-((1-(2,6-dioxopiperidin-3-yl)-3-methyl-2-oxo-2,3-dihydro-1H-benzo[d]imidazol-5-yl)amino)hexanoyl)piperidin-4-yl)-N-methyl-1,4,6,7-tetrahydro-5H-pyrazolo[4,3-c]pyridine-5-carboxamide] were 8.15 and > 80%.
On the same counts, the results for `CC(=O)N1CCc2c(c(N3CCCc4cc(-c5cnn(C)c5)c(C(F)F)cc43)nn2C2CCN(C(=O)CN3CCN(CCc4cccc5c4C(=O)N(C4CCC(=O)NC4=O)C5=O)CC3)CC2)C1` (stereo not drawn) [P-169, 4-(2-(4-(2-(4-(5-Acetyl-3-(7-(difluoromethyl)-6-(1-methyl-1H-pyrazol-4-yl)-3,4-dihydroquinolin-1(2H)-yl)-4,5,6,7-tetrahydro-1H-pyrazolo[4,3-c]pyridin-1-yl)piperidin-1-yl)-2-oxoethyl)piperazin-1-yl)ethyl)-2-(2,6-dioxopiperidin-3-yl)isoindoline-1,3-dione] are < 6.30 and < 20%.
In test [1] (CellTiter-Glo (Table 3)), `CNC(=O)N1CCc2c(c(N3CCCc4cc(-c5cnn(C)c5)c(C(F)F)cc43)nn2C2CCN(C(=O)CCCC(=O)N[C@H](C(=O)N3C[C@H](O)C[C@H]3C(=O)NCc3ccc(-c4scnc4C)cc3)C(C)(C)C)CC2)C1` [P-057, 3-(7-(Difluoromethyl)-6-(1-methyl-1H-pyrazol-4-yl)-3,4-dihydroquinolin-1(2H)-yl)-1-(1-(5-(((S)-1-((2S,4R)-4-hydroxy-2-((4-(4-methylthiazol-5-yl)benzyl)carbamoyl)pyrrolidin-1-yl)-3,3-dimethyl-1-oxobutan-2-yl)amino)-5-oxopentanoyl)piperidin-4-yl)-N-methyl-1,4,6,7-tetrahydro-5H-pyrazolo[4,3-c]pyridine-5-carboxamide] had a negative-log IC50 (pIC50) of 7.12. In addition, the inhibition at 0.01 µM in test [2] (setting [4]) is < 20%.
Compound `CC(=O)N1CCc2c(c(N3CCCc4cc(-c5cnn(C)c5)c(C(F)F)cc43)nn2C2CCN(C(=O)CCCCCCNc3cccc4c3n(C)c(=O)n4C3CCC(=O)NC3=O)CC2)C1` (stereo not drawn) [P-111, 3-(4-((7-(4-(5-acetyl-3-(7-(difluoromethyl)-6-(1-methyl-1H-pyrazol-4-yl)-3,4-dihydroquinolin-1(2H)-yl)-4,5,6,7-tetrahydro-1H-pyrazolo[4,3-c]pyridin-1-yl)piperidin-1-yl)-7-oxoheptyl)amino)-3-methyl-2-oxo-2,3-dihydro-1H-benzo[d]imidazol-1-yl)piperidine-2,6-dione] gave a negative logarithm of the IC50 (pIC50) in test [1] (CellTiter-Glo (Table 3)) of 8.12. Further, the inhibition at 0.01 µM in test [2] (setting [4]) was > 80%.
